Measurements published in patent US8575197B2, “Pyrolinone derivative and pharmaceutical composition comprising the same” (Shionogi & Co., Ltd., priority 2008, dated 2013).

Target: human P2X3 receptor (Homo sapiens (Human), UniProt P56373)
Assay: P2X3 receptor inhibition, ATP-evoked Fluo-3 calcium fluorescence (FDSS 3000)
Format: cell-based
Details: C6BU-1 cell transfected with human P2X3 receptor gene; ATP-evoked Fluo-3 fluorescence
Procedure, shortened: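 C6BU-1 cells stably transfected with human P2X3, loaded with 4 μM Fluo-3-AM for 1 h at 37 °C in HEPES buffer pH 7.5 with probenecid. Compound added 5 min before 40 nM ATP solution; fluorescence followed 3 min. IC50 from ratio of peak post-ATP to baseline fluorescence.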

Sequence of human P2X3 receptor (P56373 whole entry): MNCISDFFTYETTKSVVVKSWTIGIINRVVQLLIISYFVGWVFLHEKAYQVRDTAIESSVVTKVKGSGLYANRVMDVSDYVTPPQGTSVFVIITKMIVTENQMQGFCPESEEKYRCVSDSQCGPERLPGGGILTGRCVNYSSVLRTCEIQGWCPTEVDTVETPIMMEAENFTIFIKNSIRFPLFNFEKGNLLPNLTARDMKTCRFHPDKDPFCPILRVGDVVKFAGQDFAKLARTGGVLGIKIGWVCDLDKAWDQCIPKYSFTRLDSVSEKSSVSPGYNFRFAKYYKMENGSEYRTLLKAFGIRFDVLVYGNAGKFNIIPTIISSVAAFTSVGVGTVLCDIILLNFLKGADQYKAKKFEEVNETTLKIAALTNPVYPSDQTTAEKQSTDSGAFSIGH

Compound | IC50
COc1ncccc1C1C(C(=O)CC(C)C)=C(O)C(=O)N1c1ccc(-c2ccc(C)s2)cc1 (stereo not shown) [Compound I-336] | 351 nM
Cc1ccc(-c2ccc(N3C(=O)C(O)=C(C(=O)CC(C)C)C3c3ccccc3OC(F)(F)F)cc2)s1 (stereo not shown) [Compound I-338] | 147 nM
COc1ncccc1C1C(C(=O)CC(C)C)=C(O)C(=O)N1c1ccc(-c2ccoc2)cc1 (stereo not shown) [Compound I-340] | 336 nM
Cc1cc(-c2ccc(N3C(=O)C(O)=C(C(=O)CC(C)C)C3c3ccccc3OC(F)F)cc2)on1 (stereo not shown) [Compound I-341] | 508 nM
CC(C)CC(=O)C1=C(O)C(=O)N(c2ccc(-c3ccoc3)cc2)C1c1ccccc1OC(F)F (stereo not shown) [Compound I-342] | 67 nM
CC(C)CC(=O)C1=C(O)C(=O)N(c2ccc(-c3ccoc3)cc2)C1c1ccccc1OC(F)(F)F (stereo not shown) [Compound I-343] | 78 nM
Cc1cc(-c2ccc(N3C(=O)C(O)=C(C(=O)CC(C)C)C3c3ccccc3OC(F)(F)F)cc2)on1 (stereo not shown) [Compound I-344] | 594 nM
COCCOc1ccccc1C1C(C(=O)CC(C)C)=C(O)C(=O)N1c1ccc(-c2cc(C)no2)cc1 (stereo not shown) [Compound I-346] | 677 nM
COCCOc1ccccc1C1C(C(=O)CC(C)C)=C(O)C(=O)N1c1ccc(-c2ccoc2)cc1 (stereo not shown) [Compound I-348] | 55 nM
COCOc1ccccc1C1C(C(=O)CC(C)C)=C(O)C(=O)N1c1ccc(-c2ccoc2)cc1 (stereo not shown) [Compound I-349] | 37 nM
CC(C)CC(=O)C1=C(O)C(=O)N(c2ccc(-c3ccoc3)cc2)C1c1ccccc1OCCO (stereo not shown) [Compound I-350] | 66 nM
COCc1ccccc1C1C(C(=O)C(C)C)=C(O)C(=O)N1c1ccc2c(c1)cc(C)n2C (stereo not shown) [Compound I-353] | 210 nM
COCc1ccccc1C1C(C(=O)CC(C)C)=C(O)C(=O)N1c1ccc(-c2ccco2)cc1 (stereo not shown) [Compound I-355] | 44 nM
COCCOc1ncccc1C1C(C(=O)CC(C)C)=C(O)C(=O)N1c1ccc(-c2ccc(C)o2)cc1 (stereo not shown) [Compound I-360] | 21 nM
Cc1ccc(-c2ccc(N3C(=O)C(O)=C(C(=O)CC(C)C)C3c3ccccc3OC(F)F)cc2)o1 (stereo not shown) [Compound I-361] | 48 nM
Cc1ccc(-c2ccc(N3C(=O)C(O)=C(C(=O)CC(C)C)C3c3ccccc3OC(F)(F)F)cc2)o1 (stereo not shown) [Compound I-362] | 40 nM

Compound | IC50
COCCOc1cc(F)ccc1C1C(C(=O)CC(C)C)=C(O)C(=O)N1c1ccc(-c2ccsc2)cc1 (stereo not shown) [Compound I-364] | 9 nM
COCCOc1cc(F)ccc1C1C(C(=O)CC(C)C)=C(O)C(=O)N1c1ccc(-c2noc(C)n2)cc1 (stereo not shown) [Compound I-365] | 82 nM
CC(C)CC(=O)C1=C(O)C(=O)N(c2ccc(-c3ccsc3)cc2)C1c1ccccc1OCCCO (stereo not shown) [Compound I-366] | 13 nM
COCCOc1cc(F)ccc1C1C(C(=O)C(C)C)=C(O)C(=O)N1c1ccc(-c2ccoc2)cc1 (stereo not shown) [Compound I-367] | 19 nM
COCCOc1cc(F)ccc1C1C(C(=O)CC(C)C)=C(O)C(=O)N1c1ccc(-c2ccoc2)cc1 (stereo not shown) [Compound I-368] | 16 nM
COCCOc1cc(F)ccc1C1C(C(=O)C(C)C)=C(O)C(=O)N1c1ccc(-c2noc(C)n2)cc1 (stereo not shown) [Compound I-369] | 91 nM
COCc1ccccc1C1C(C(=O)CC(C)C)=C(O)C(=O)N1c1ccc(-c2ccc(C)o2)cc1 (stereo not shown) [Compound I-380] | 7 nM
COCCOc1ccccc1C1C(C(=O)CC(C)C)=C(O)C(=O)N1c1ccc(-c2ccc(C)o2)cc1 (stereo not shown) [Compound I-381] | 7 nM
COCOc1ccccc1C1C(C(=O)CC(C)C)=C(O)C(=O)N1c1ccc(-c2ccc(C)o2)cc1 (stereo not shown) [Compound I-382] | 6 nM
Cc1ccc(-c2ccc(N3C(=O)C(O)=C(C(=O)CC(C)C)C3c3ccccc3OCCO)cc2)o1 (stereo not shown) [Compound I-384] | 19 nM
COCc1ccccc1C1C(C(=O)C(C)C)=C(O)C(=O)N1c1ccc2sc(C)nc2c1 (stereo not shown) [Compound I-385] | 227 nM
COCCOc1ccccc1C1C(C(=O)CC(C)C)=C(O)C(=O)N1c1ccc(-c2coc(C)n2)cc1 (stereo not shown) [Compound I-391] | 684 nM
COCc1ccccc1C1C(C(=O)CC(C)C)=C(O)C(=O)N1c1ccc(-c2coc(C)n2)cc1 (stereo not shown) [Compound I-392] | 946 nM
COCCOc1ccccc1C1C(C(=O)CC(C)C)=C(O)C(=O)N1c1ccc(C2=NCCS2)cc1 (stereo not shown) [Compound I-410] | 151 nM
COc1ccccc1C1C(C(=O)CC(C)C)=C(O)C(=O)N1c1ccc(C2=NCCS2)cc1 (stereo not shown) [Compound I-412] | 310 nM
CC(C)CC(=O)C1=C(O)C(=O)N(c2ccc(C3=NCCS3)cc2)C1c1ccccc1OC(C)C (stereo not shown) [Compound I-413] | 42 nM

The next lines start with the values.

IC50 | Compound
78 nM | Cc1ccc(-c2ccc(N3C(=O)C(O)=C(C(=O)C(C)C)C3c3ccccc3OC(F)(F)F)cc2)s1 (stereo not shown) [Compound I-334]
103 nM | Cc1ccc(-c2ccc(N3C(=O)C(O)=C(C(=O)CC(C)C)C3c3ccccc3OC(F)F)cc2)s1 (stereo not shown) [Compound I-337]
892 nM | COc1ccccc1C1C(C(=O)CC(C)C)=C(O)C(=O)N1c1ccc(-c2cc(C)no2)cc1 (stereo not shown) [Compound I-339]
999 nM | Cc1cc(-c2ccc(N3C(=O)C(O)=C(C(=O)CC(C)C)C3c3ccccc3OCCO)cc2)on1 (stereo not shown) [Compound I-345]
47 nM | CCOc1ccccc1C1C(C(=O)CC(C)C)=C(O)C(=O)N1c1ccc(-c2ccoc2)cc1 (stereo not shown) [Compound I-347]
101 nM | COc1ccccc1C1C(C(=O)CC(C)C)=C(O)C(=O)N1c1ccc(-c2ccoc2)cc1 (stereo not shown) [Compound I-351]
57 nM | COCc1ccccc1C1C(C(=O)C(C)C)=C(O)C(=O)N1c1ccc(-c2ccco2)cc1 (stereo not shown) [Compound I-354]
7 nM | COCc1ccccc1[C@@H]1C(C(=O)CC(C)C)=C(O)C(=O)N1c1ccc(-c2ccsc2)cc1 [Compound I-356]
20 nM | COCCOc1ncccc1C1C(C(=O)C(C)C)=C(O)C(=O)N1c1ccc(-c2ccc(C)o2)cc1 (stereo not shown) [Compound I-357]
25 nM | Cc1ccc(-c2ccc(N3C(=O)C(O)=C(C(=O)C(C)C)C3c3ccccc3OC(F)F)cc2)o1 (stereo not shown) [Compound I-358]
24 nM | Cc1ccc(-c2ccc(N3C(=O)C(O)=C(C(=O)C(C)C)C3c3ccccc3OC(F)(F)F)cc2)o1 (stereo not shown) [Compound I-359]
7 nM | COCCOc1cc(F)ccc1C1C(C(=O)C(C)C)=C(O)C(=O)N1c1ccc(-c2ccsc2)cc1 (stereo not shown) [Compound I-363]
194 nM | Cc1cc(-c2ccc(N3C(=O)C(O)=C(C(=O)CC(C)C)C3c3ccccc3OC(C)C)cc2)on1 (stereo not shown) [Compound I-370]
447 nM | COc1ncccc1C1C(C(=O)CC(C)C)=C(O)C(=O)N1c1ccc(-c2csc(C)c2)cc1 (stereo not shown) [Compound I-371]
35 nM | COCOc1ccccc1C1C(C(=O)CC(C)C)=C(O)C(=O)N1c1ccc(-c2csc(C)c2)cc1 (stereo not shown) [Compound I-372]
51 nM | Cc1cc(-c2ccc(N3C(=O)C(O)=C(C(=O)CC(C)C)C3c3ccccc3OC(C)C)cc2)cs1 (stereo not shown) [Compound I-373]
40 nM | Cc1cc(-c2ccc(N3C(=O)C(O)=C(C(=O)CC(C)C)C3c3ccccc3OCCO)cc2)cs1 (stereo not shown) [Compound I-374]
30 nM | COCCOc1ccccc1C1C(C(=O)CC(C)C)=C(O)C(=O)N1c1ccc(-c2csc(C)c2)cc1 (stereo not shown) [Compound I-375]
25 nM | COCc1ccccc1C1C(C(=O)CC(C)C)=C(O)C(=O)N1c1ccc(-c2csc(C)c2)cc1 (stereo not shown) [Compound I-376]

IC50 | Compound
148 nM | Cc1cc(-c2ccc(N3C(=O)C(O)=C(C(=O)CC(C)C)C3c3ccccc3OC(F)F)cc2)cs1 (stereo not shown) [Compound I-377]
192 nM | Cc1cc(-c2ccc(N3C(=O)C(O)=C(C(=O)CC(C)C)C3c3ccccc3OC(F)(F)F)cc2)cs1 (stereo not shown) [Compound I-378]
118 nM | COc1ccccc1C1C(C(=O)CC(C)C)=C(O)C(=O)N1c1ccc(-c2csc(C)c2)cc1 (stereo not shown) [Compound I-379]
36 nM | COc1ccccc1C1C(C(=O)CC(C)C)=C(O)C(=O)N1c1ccc(-c2ccc(C)o2)cc1 (stereo not shown) [Compound I-383]
15 nM | COCc1ccccc1[C@@H]1C(C(=O)C(C)C)=C(O)C(=O)N1c1ccc(-c2ccc(C)s2)cc1 [Compound I-393]
11 nM | COCc1ccccc1[C@@H]1C(C(=O)C(C)C)=C(O)C(=O)N1c1ccc(-c2cccs2)cc1 [Compound I-394]
6 nM | COCCOc1ncccc1[C@@H]1C(C(=O)C(C)C)=C(O)C(=O)N1c1ccc(-c2ccsc2)cc1 [Compound I-395]
7 nM | Cc1ccc(-c2ccc(N3C(=O)C(O)=C(C(=O)C(C)C)C3c3ccccc3OC(C)C)cc2)o1 (stereo not shown) [Compound I-396]
122 nM | Cc1ccc(-c2ccc(N3C(=O)C(O)=C(C(=O)C(C)C)C3c3ccccc3C(=O)N(C)C)cc2)o1 (stereo not shown) [Compound I-397]
14 nM | Cc1ccc(-c2ccc(N3C(=O)C(O)=C(C(=O)CC(C)C)C3c3ccccc3OC(C)C)cc2)o1 (stereo not shown) [Compound I-398]
44 nM | Cc1ccc(-c2ccc(N3C(=O)C(O)=C(C(=O)CC(C)C)C3c3ccccc3C(=O)N(C)C)cc2)o1 (stereo not shown) [Compound I-399]
22 nM | Cc1ccc(-c2ccc(N3C(=O)C(O)=C(C(=O)C(C)C)C3c3ccccc3OC(C)C)cc2)s1 (stereo not shown) [Compound I-400]
79 nM | Cc1ccc(-c2ccc(N3C(=O)C(O)=C(C(=O)C(C)C)C3c3ccccc3C(=O)N(C)C)cc2)s1 (stereo not shown) [Compound I-401]
80 nM | Cc1ccc(-c2ccc(N3C(=O)C(O)=C(C(=O)CC(C)C)C3c3ccccc3OC(C)C)cc2)s1 (stereo not shown) [Compound I-402]
71 nM | Cc1cc(-c2ccc(N3C(=O)C(O)=C(C(=O)CC(C)C)C3c3ccccc3C(=O)N(C)C)cc2)cs1 (stereo not shown) [Compound I-404]
31 nM | CC(C)CC(=O)C1=C(O)C(=O)N(c2ccc(-c3ccsc3)cc2)C1c1ccccc1C(=O)N(C)C (stereo not shown) [Compound I-405]
29 nM | Cc1ccc(-c2ccc(N3C(=O)C(O)=C(C(=O)CC(C)C)C3c3ccccc3C(=O)N(C)C)cc2)s1 (stereo not shown) [Compound I-406]
18 nM | CC(C)CC(=O)C1=C(O)C(=O)N(c2ccc(-c3ccoc3)cc2)C1c1ccccc1OC(C)C (stereo not shown) [Compound I-408]
177 nM | Cc1cc(-c2ccc(N3C(=O)C(O)=C(C(=O)C(C)C)C3c3ccccc3C(=O)N(C)C)cc2)cs1 (stereo not shown) [Compound I-409]
